According to US20070232556A1, “Methods and compositions for the treatment of neurological diseases and disorders” (priority 2006, published 2007):

Experiments:
wt microglia = test: Microglial phagocytosis of aggregated fluorescein-labeled Aβ1-42 (flow cytometry), wt microglia; format: cell-based, mouse; conditions: for Aβ1-42 uptake (percent of wt controls): n=6
Description: (§1) Microglial Aβ phagocytosis. At DIV 14, microglia were seeded in 6-well plates at 1.5×10^5 cells per well in microglial culture medium. After 2hr seeding, medium was changed with 1.5 ml of serum-free DMEM medium containing penicillin and streptomycin. To make aggregated Aβ for phagocytosis, Aβ was dissolved in 2 mM NaOH and was diluted into 10 μM of stock solution (100×) in PBS followed by incubation at 37° C. for 2 hr and monitored by turbidity. For studying signaling pathways involved in Aβ phagocytosis, some microglia were pre-treated for 1 hr with AH6809 (20 μM), butaprost ([…]), SC51089 (10 μM), PTPE2 (20 μM), forskolin (50 μM), or BIM (10 μM) prior to treatment with aggregated fluorescein labeled AP1-42 (100 nM). After 24hr incubation of Aβ, cells were washed with PBS followed by trypsinization (0.05%) and centrifugation. Cells were then re-suspended in PBS and subjected to flow cytometry. Flow cytometer (FACScan, BD Biosciences, San Jose, Calif.) set at un-gated 10,000 cells per measure was used to analyze Aβ uptake as an indication of Aβ phagocytosis. Data were analyzed using Summit Mo-Flo software (Cytomation, Fort Collins, Colo.). Phagocytosis was presented as percent of mean FITC intensity in wt controls treated with Aβ. Some cells were plated onto chambered slides at 1×10^4 for assessing cellular uptake of Aβ using fluorescent microscope (Nikon TE200).

EP2^−/− microglia = test: Microglial phagocytosis of aggregated fluorescein-labeled Aβ1-42 (flow cytometry), EP2−/− microglia; format: cell-based, mouse
Description: as §1

[1] = BIM at 10 μM, 1 hr pre-treatment, 100 nM fluorescein-Aβ1-42, 24 hr

In the case of `O=S(=O)(NCCNC/C=C/c1ccc(Br)cc1)c1cccc2cnccc12` [H89], the “Effect on Aβ1-42 uptake” value (wt microglia; PKA inhibitor) is reported as “did not enhanced Aβ1-42 uptake”.

In the case of `O=C(O)CCC/C=C\C[C@H]1C(=O)C[C@@H](O)[C@@H]1/C=C/[C@@H](O)CCc1ccccc1` [PTPE2, 17-phenyl trinor prostaglandin E2], the “Effect on Aβ1-42 phagocytosis” value (wt microglia; PTPE2 at 20 μM) is reported as “without effect” and the “Effect on Aβ1-42 phagocytosis” value (EP2^−/− microglia; PTPE2 at 20 μM) is reported as “without effect”.

`CCCC1([C@H](O)C/C=C/[C@H]2[C@H](O)CC(=O)[C@@H]2CCCCCCC(=O)OC)CCC1` [butaprost] was tested, and the “Aβ1-42 uptake (percent of wt controls)” value (wt microglia; 1 μM) was 98±3%, the “Aβ1-42 uptake (percent of wt controls)” value (wt microglia; 10 μM) was 104±2% and the “Aβ1-42 uptake (percent of wt controls)” value (wt microglia; 50 μM) was 92±2%.

With SC51089 the “Effect on Aβ1-42 phagocytosis” value (wt microglia; SC51089 at 10 μM) was “without effect” and the “Effect on Aβ1-42 phagocytosis” value (EP2^−/− microglia; SC51089 at 10 μM) was “without effect”.

bisindolylmaleimide [BIM] was tested, and the “Aβ1-42 uptake, % of wt basal Aβ1-42 uptake” value (wt microglia; [1]) was 36±4% and the “Aβ1-42 uptake, % of wt basal Aβ1-42 uptake” value (EP2^−/− microglia; [1]) was 35±4%.
